From ChEMBL document CHEMBL5252586, “2-[(2-Amino-6-methylpyrimidin-4-yl)sulfanyl]-N-arylacetamides: Discovery of a new class of anti-tubercular agents and prospects for their further structural modification” (Bioorg Med Chem Lett, 2023)
Converted amounts (≈) assume the structure as drawn. The source made the active and inactive calls. The rule behind the calls is not given here.

Tests used:
[1] = tested on: Mycobacterium tuberculosis; experiment: Antimycobacterial activity against Mycobacterium tuberculosis H37Rv assessed as reduction in bacterial growth; type: functional
[2] = tested on: Mycobacterium tuberculosis; experiment: Antimycobacterial activity against Mycobacterium tuberculosis H37Rv assessed as reduction in bacterial growth at 100 microg/ml; type: functional, organism-based; details: dose 100.0 µg/ml
[3] = Solubility of compound; type: physicochemical

Row | SMILES | MIC [1] [µg/mL] | also measured
1 | Cc1cc(SCC(=O)Nc2ccc(F)cc2)nc(N)n1 | 100 (≈ 342 µM) | 
2 | Cc1ccc(NC(=O)CSc2cc(C)nc(N)n2)cc1 |  | Activity [2]: inactive
3 | NNC(=O)c1ccncc1 [ISONIAZID] | 0.1 (≈ 0.729 µM) | 
4 | CO[C@H]1/C=C/O[C@@]2(C)Oc3c(C)c(O)c4c(O)c(c(/C=N/N5CCN(C)CC5)c(O)c4c3C2=O)NC(=O)/C(C)=C\C=C\[C@H](C)[C@H](O)[C@@H](C)[C@@H](O)[C@@H](C)[C@H](OC(C)=O)[C@@H]1C [RIFAMPIN] | 0.5 (≈ 0.608 µM) | 
5 | Cc1cc(SCC(=O)Nc2cccc(Cl)c2C)nc(N)n1 | 100 (≈ 310 µM) | 
6 | CC[C@@H](CO)NCCN[C@@H](CC)CO [ETHAMBUTOL] | 5 (≈ 24.5 µM) | 
7 | Cc1ccc(NC(=O)CSc2cc(C)nc(N)n2)c(C)c1 | 100 (≈ 331 µM) | 
8 | Cc1cc(SCC(=O)Nc2ccccc2)nc(N)n1 | 100 (≈ 364 µM) | 
9 | Cc1cc(SCC(=O)Nc2ccc(C(C)C)cc2)nc(N)n1 | 1.5 (≈ 4.74 µM) | 
10 | Cc1cc(SCC(=O)Nc2cc(C(F)(F)F)ccc2Cl)nc(N)n1 | 25 (≈ 66.3 µM) | 
11 | Cc1cc(=O)[nH]c(N)n1 |  | solubility [3]: Soluble
12 | Cc1cc(SCC(=O)Nc2cc(Cl)ccc2Cl)nc(N)n1 | 1.5 (≈ 4.37 µM) | 
